In patent US8877775B2, “Substituted 2-aza-bicyclo[2.2.2]octane-3-carboxylic acid (benzyl-cyano-methyl)-amides inhibitors of cathepsin C” (Boehringer Ingelheim International GmbH, priority 2013, dated 2014):

Columns and labels:
[1] = biological target: recombinant human Cathepsin K (Homo sapiens (Human), UniProt P43235); experiment: Inhibition of human Cathepsin K; assay type: biochemical; conditions: substrate Z-Gly-Pro-Arg-AMC 12.5 μM, 60 min, room temperature
From the text: Inhibition of Human Cathepsin K
Materials: Microtiterplates (Optiplate-384 F were purchased from PerkinElmer (Prod. No. 6007270). The substrate Z-Gly-Pro-Arg-AMC was from Biomol (Prod.-No. P-142). L-Cysteine (Prod. No. 168149) was from Sigma. Sodium actetate was from Merck (Prod.-No. 6268.0250), EDTA was from Fluka (Prod.-No. 03680). The inhibitor E-64 was purchased from Sigma (Prod.-No. E3132). The recombinant human Cathepsin K proenzyme was purchased from Biomol (Prod. No. SE-367). All other materials were of highest grade commercially available.
The following buffers were used: Activation buffer: 32.5 mM sodium acetate, adjusted to pH 3.5 with HCl; Assay buffer: 150 mM sodium acetate, 4 mM EDTA, 20 mM L-Cysteine, adjusted to pH 5.5 with HCl,
To activate the proenzyme, 5 μl procathepsin K were mixed with 1 ul activation buffer, and incubated at room temperature for 30 min.
5 μL test compound (final concentration 0.1 nM to 100 μM) in aqua bidest (containing 4% DMSO, final DMSO concentration 1%) were mixed with 10 uL of Cathepsin K in assay buffer (final concentration 2 ng/μL) and incubated for 10 min. Then 5 μL of substrate in assay buffer (final concentration 12.5 μM) were added. The plates were then incubated at room temperature for is 60 min. Then, the reaction was stopped by adding 10 μL of E64 in assay buffer (final concentration 1 μM). The fluorescence in the wells was determined using a Molecular Devices SpectraMax M5 Fluorescence Reader (Ex 360 nm, Em 460 nm).
Each assay microtiter plate contains wells with vehicle controls (1% DMSO in bidest) as reference for non-inhibited enzyme activity (100% Ctl; high values) and wells with inhibitor (E64 in bidest+1% DMSO, final concentration 1 μM) as controls for background fluorescence (0% Ctl; low values). The analysis of the data was performed by calculating the percentage of fluorescence in the presence of test compound in comparison to the fluorescence of the vehicle control after subtracting the background fluorescence: (RFU(sample)−RFU(background))*100/(RFU(control)−RFU(background))
Data from these calculations were used to generate IC50 values for inhibition of Cathepsin K, respectively.

[2] = system: Neutrophil elastase activity in U937 cells; experiment: Neutrophil elastase activity in U937 cytosolic lysate after incubation with test compound; assay type: cell-based; conditions: Homo sapiens, U-937; U937 cells incubated 48 hours with compound; NE activity in lysate; read-out: Reduction of NE-activity in U937 cells IC50
Experimental: Determination of Neutrophil Elastase Activity in U937 Cytosolic Lysate Preparation after Incubation with Test Compound Materials: Optiplate 384F were purchased from PerkinElmer (Prod. No. #6007270). 24 well Nunclon cell culture plates (No. 142475) and 96 well plates (No. 267245) were from Nunc. Dimethylsulfoxid (DMSO) was from Sigma (Prod. No. D8418). Nonidet-P40 (NP40) was from USBiological (Prod. No. N3500) Substrate, specific for Neutrophil elastase, was from Bachem (MeOSuc-Ala-Ala-Pro-Val-AMC; Prod. No. I-1270). Human neutrophil elastase was from Calbiochem (Prod. No. 324681) Buffers: Tris-buffer (100 mM Tris; 1M NaCL; pH 7.5) Tris-buffer+HSA 0.1%; Human Serum Albumin from Calbiochem (Cat#. 126658) Serine-protease buffer (20 mM Tris; 100 mM NaCL; pH 7.5)+0.1% HSA Serine protease lysis buffer: 20 mM Tris-HCL; 100 mM NaCl pH 7.5; +0.2% Nonidet-P40; PBS: phosphate buffered saline, without Ca and Mg, from Gibco Cell Culture: U937 from ECACC (Cat. No. 85011440) cultured in suspension at 37° C. and 5% CO2. Cell density: 0.2-1 Mio. Cells/ml. Medium: RPMI1640 GlutaMAX (No. 61870) with 10% FCS from Gibco Cell Seeding and Treatment: Compounds in 100% DMSO were diluted in Medium (—FCS) with 10% DMSO and further diluted according to the experiment planned. 20 μl of the compound solution was transferred in the respective wells of the 24 well plate and diluted with 2 ml cell suspension/well containing 1′10^5 cells/ml (final concentration of DMSO=0.1%). Compound dilution factor=100 Compounds (up to 7 concentrations) were tested in triplicates with 3 wells for the DMSO 0.1% control, incubated for 48 hours without medium change at 37° C., 5% CO2 and 95% relative to humidity. Cell Harvesting and Cell Lysate:
Transfer the cell suspension in 2.2 ml Eppendorf cups. Separate cells from medium by centrifugation (400×g; 5 min; RT); discard the supernatant. Resuspend in 1 ml PBS; centrifugation (400×g; 5 min; RT); wash cells twice with PBS. Add 100 μl Serin lysis buffer (ice cold) to the cell pellet; resuspend the pellet and store on ice for 15 minutes. Remove debris by centrifugation at 15000×g for 10 min at 4° C. Transfer 80-100 μl lysate supernatant in 96 well plate and store immediately at −80° C.
Neutrophil Elastase Activity Assay:
Frozen lysates were thawn at 37° C. for 10 minutes and stored on ice. Protein content was determined with Bradford protein assay. Lysates were diluted to 0.2-0.5 mg/ml protein in serine protease buffer+HSA.
Standard: NE (100 μg/ml stocksolution in Tris-buffer; stored at −80° C.) was diluted in Tris-buffer+HSA to 750 ng/ml, and further serially diluted 1:2 for the standard curve.
Buffer, blank, standard and lysate samples were transferred into 384 well plate
The increase in fluorescence (Ex360 nm/Em 460 nm) is determined over 30 minutes with a Molecular Device Spectramax M5 Fluorescence Reader. Kinetic Reduction (Vmax units/sec); 4 vmax points. The amount of neutrophil elastase (ng/ml) is calculated using the standard curve and the Spectramax software. The result is interpolated to ng/mg lysate protein using excel formula functions. […] IC50 is calculated using Graphpad Prism; nonlinear fitting (log(inhibitor) vs. response—Variable slope). The IC50 value is interpolated as the concentration of test compound which leads to a neutrophil elastase activity reduction of 50% (relative to the DMSO-treated control).

recombinant human Cathepsin K, sequence (P43235 115-329): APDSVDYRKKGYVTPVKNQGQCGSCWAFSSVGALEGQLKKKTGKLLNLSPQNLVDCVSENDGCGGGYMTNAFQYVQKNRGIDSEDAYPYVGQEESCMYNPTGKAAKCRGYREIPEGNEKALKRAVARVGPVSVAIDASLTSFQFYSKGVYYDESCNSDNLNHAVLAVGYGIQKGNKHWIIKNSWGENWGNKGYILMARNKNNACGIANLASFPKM

SMILES	IC50 [1]	IC50 [2]
N#C[C@H](Cc1ccc(-c2ccc3c(c2)NC(=O)C3)cc1)NC(=O)[C@H]1NC2CCC1CC2 [Example 2, (2S)—N-[(1S)-cyano-2-[4-(2-oxoindolin-6-yl)phenyl]ethyl]-3-azabicyclo[2.2.2]octane-2-carboxamide]	4.2 µM	281 nM
CN1C(=O)Cc2ccc(-c3ccc(C[C@@H](C#N)NC(=O)[C@H]4N[C@H]5CC[C@@H]4CC5)cc3)cc21 [Example 4]	6.3 µM	50 nM
N#Cc1ccc(-c2ccc(C[C@@H](C#N)NC(=O)[C@H]3N[C@H]4CC[C@@H]3CC4)cc2)cc1F [Example 7, (2S)—N-[(1S)-1-cyano-2-[4-(4-cyano-3-fluoro-phenyl)phenyl]ethyl]-3-azabicyclo[2.2.2]octane-2-carboxamide]	5.7 µM	561 nM
CS(=O)(=O)c1cc(-c2ccc(C[C@@H](C#N)NC(=O)[C@H]3NC4CCC3CC4)cc2)ccc1C#N [Example 8]	5.3 µM	469 nM

Other lines, results leading:

IC50 [1]	IC50 [2]	SMILES
5.3 µM	426 nM	CS(=O)(=O)c1cccc(-c2ccc(C[C@@H](C#N)NC(=O)[C@H]3NC4CCC3CC4)cc2)c1 [Example 10]
11 µM	328 nM	N#C[C@H](Cc1ccc(-c2ccc3c(c2)CNC3=O)cc1)NC(=O)[C@H]1NC2CCC1CC2 [Example 11]
9.9 µM	450 nM	CS(=O)(=O)Nc1cccc(-c2ccc(C[C@@H](C#N)NC(=O)[C@H]3NC4CCC3CC4)cc2)c1 [Example 12]
